The text below walks through data of patent US9006440B2, “Furopyridine derivatives” (Merck Patent GmbH, priority 2010, dated 2015).

Format in all cases: biochemical
The target in one test is T1, Syk (Homo sapiens, UniProt P43405).
T1 construct: purchased BPS Bioscience, CA, USA
Description: Syk enzyme assay (SYK flash plate assay / Caliper mobility shift). An outline of the steps:
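Flashplate format: 2.5 nM SYK, 400 nM biotinylated peptide, 10 μM ATP with 33P-ATP, pH 7.5, 1 h at 30 °C; radioactivity read, staurosporine background. Caliper format: 90 min at 25 °C, mobility-shift read of substrate-to-product conversion; IC50 from dose-response curve.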

The target of a further test is T2, SRC (Homo sapiens, UniProt P12931).
T2 construct: purchased Carna Bioscience, Kobe, Japan
Description: Src enzymatic assay (Caliper LifeSciences technology). An outline of the steps: (§1)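 Off-chip mobility-shift assay measuring conversion of a fluorescently labelled peptide substrate, in 100 mM HEPES pH 7.5, 1 mM DTT, 1 mM MgCl2 and 0.015% Brij-35. Reactions ran 90 min at 25 C and were stopped with EDTA. IC50s were derived from percent-conversion dose-response curves.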

The next test concerns the target T3, Zap70 (Homo sapiens, UniProt P43403).
T3 construct: purchased BPS Bioscience, CA, USA
T3 sequence (P43403 1-619): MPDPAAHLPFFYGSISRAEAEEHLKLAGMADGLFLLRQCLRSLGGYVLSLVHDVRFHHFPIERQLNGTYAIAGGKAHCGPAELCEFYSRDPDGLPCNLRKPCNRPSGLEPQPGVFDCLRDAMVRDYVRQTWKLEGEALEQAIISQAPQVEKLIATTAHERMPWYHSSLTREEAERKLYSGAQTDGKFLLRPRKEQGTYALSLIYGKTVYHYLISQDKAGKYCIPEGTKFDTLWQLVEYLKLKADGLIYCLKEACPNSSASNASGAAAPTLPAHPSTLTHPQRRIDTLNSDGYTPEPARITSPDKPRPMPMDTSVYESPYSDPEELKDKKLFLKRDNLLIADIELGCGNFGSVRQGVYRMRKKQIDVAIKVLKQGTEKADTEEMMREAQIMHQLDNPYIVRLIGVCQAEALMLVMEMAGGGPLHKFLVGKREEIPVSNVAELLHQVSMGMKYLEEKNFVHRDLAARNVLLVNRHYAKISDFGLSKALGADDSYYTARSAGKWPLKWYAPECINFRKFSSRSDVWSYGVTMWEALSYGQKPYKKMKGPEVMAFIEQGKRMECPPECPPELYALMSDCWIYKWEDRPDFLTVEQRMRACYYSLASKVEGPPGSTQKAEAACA
Put plainly: ZAP-70 enzymatic assay (Caliper LifeSciences technology). How it is done: (§2) The assays described here are performed on the Caliper Life Sciences LC3000 system This technology provides data on enzyme activity via measurement of the relative amounts of phosphorylated or unphosphorylated fluorescently labelled substrate peptide at the end of an enzymatic reaction. These different states of peptide are resolved by applying a potential difference across the sample. The presence of the charged phosphate group on the product (as opposed to the substrate) causes a different peptide mobility between the two peptides. This is visualized by excitation of the fluorescent label on the substrate and product peptides and represented as peaks within the analysis software.
(§3) In order to measure inhibitor activity of kinase inhibitors on this technology, a TTP Mosquito liquid handling instrument is used to place 0.25 ul of the appropriate concentration of inhibitor in 100% DMSO (for a dose response curve calculation) into each well of a 384-well plate. To this reaction components are added to a final volume of 25 ul. The table below indicates the sequences and concentrations for the assays described in this report. Standard components are 1 mM DTT (Sigma, D0632), 1 mM MgCl2 (Sigma, M1028), 100 mM HEPES pH 7.5 (Calbiochem, 391338), 0.015% Brij-35 (Sigma, B4184).
(§4) The reaction is incubated for 90 min at 25 C, and then stopped by the addition of 70 ul of Stop buffer (100 mM HEPES pH 7.5, 0.015% Brij-35, 10 mM EDTA (Sigma, E7889)).
(§5) The plate is read on a Caliper LC 3000 in an Off-Chip mobility shift assay format, on a 12-sipper chip. Unphosphorylated substrate and phosphorylated product peptide resolve as separate peaks allowing direct measurement of percentage of conversion of substrate to product. The percent conversion can be plotted against concentration of inhibitor to produce a sigmoidal dose response curve, from which an IC50 can be calculated using GeneData Condoseo or a similar product.

Another test has as its target T4, KDR (Homo sapiens, UniProt P35968).
T4 construct: purchased BPS Bioscience, CA, USA
Description: KDR enzymatic assay (Caliper LifeSciences technology). An outline of the steps:
as §1

A further test concerns the target T5, BTK (Homo sapiens, UniProt Q06187).
T5 construct: purchased Carna Bioscience, Kobe, Japan
Put plainly: BTK enzymatic assay (Caliper LifeSciences technology). How it is done: as §2, §3, §4, §5

Where only a bound is given, the exact number is not on record here.

T4 sequence (P35968 20-1356): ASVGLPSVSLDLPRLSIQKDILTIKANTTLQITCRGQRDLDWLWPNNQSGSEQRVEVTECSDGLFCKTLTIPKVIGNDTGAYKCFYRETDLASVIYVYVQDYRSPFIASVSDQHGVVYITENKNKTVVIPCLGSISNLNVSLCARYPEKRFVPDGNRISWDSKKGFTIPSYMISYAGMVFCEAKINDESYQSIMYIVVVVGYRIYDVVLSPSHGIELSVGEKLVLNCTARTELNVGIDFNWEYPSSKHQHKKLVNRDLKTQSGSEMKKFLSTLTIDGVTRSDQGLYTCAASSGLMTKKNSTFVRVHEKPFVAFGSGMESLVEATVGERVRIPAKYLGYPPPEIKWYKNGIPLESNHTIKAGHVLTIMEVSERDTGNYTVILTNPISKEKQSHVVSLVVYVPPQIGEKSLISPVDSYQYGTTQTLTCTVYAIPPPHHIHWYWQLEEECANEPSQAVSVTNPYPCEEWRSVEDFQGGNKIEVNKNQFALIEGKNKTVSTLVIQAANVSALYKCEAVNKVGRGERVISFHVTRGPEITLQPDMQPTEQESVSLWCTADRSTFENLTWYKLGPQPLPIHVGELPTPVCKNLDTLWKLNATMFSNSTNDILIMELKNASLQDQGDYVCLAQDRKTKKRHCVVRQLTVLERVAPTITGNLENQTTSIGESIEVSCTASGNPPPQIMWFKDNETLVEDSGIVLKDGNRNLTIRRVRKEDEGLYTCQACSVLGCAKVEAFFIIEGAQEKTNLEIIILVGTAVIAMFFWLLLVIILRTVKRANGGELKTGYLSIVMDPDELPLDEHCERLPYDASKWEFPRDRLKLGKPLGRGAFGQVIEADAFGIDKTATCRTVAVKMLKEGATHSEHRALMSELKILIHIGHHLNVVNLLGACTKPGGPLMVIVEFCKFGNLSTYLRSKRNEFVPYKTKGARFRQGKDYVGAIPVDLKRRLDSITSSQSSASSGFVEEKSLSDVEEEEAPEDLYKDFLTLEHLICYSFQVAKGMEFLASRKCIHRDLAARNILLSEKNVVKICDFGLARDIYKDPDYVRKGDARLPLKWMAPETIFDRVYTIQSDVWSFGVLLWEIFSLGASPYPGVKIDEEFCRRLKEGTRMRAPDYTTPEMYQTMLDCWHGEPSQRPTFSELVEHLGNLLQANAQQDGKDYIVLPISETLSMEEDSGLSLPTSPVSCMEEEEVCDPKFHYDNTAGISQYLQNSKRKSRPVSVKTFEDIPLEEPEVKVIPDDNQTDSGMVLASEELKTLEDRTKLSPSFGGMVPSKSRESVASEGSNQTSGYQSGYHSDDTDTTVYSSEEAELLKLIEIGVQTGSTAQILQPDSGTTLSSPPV
T2 sequence (P12931 whole entry): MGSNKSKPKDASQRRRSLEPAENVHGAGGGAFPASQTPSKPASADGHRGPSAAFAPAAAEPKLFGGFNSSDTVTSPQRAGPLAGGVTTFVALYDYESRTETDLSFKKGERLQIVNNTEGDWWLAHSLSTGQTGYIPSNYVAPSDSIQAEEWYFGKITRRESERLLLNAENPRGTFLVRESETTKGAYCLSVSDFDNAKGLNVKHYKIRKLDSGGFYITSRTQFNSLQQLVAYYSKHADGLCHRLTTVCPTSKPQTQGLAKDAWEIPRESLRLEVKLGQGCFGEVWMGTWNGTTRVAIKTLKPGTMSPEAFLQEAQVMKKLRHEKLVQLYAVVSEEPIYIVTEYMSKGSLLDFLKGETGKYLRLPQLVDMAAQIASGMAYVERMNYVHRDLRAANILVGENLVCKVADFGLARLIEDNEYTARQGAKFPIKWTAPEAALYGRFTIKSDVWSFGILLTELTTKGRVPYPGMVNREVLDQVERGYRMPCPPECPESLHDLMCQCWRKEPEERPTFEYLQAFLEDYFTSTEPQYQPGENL
T5 sequence (Q06187 whole entry): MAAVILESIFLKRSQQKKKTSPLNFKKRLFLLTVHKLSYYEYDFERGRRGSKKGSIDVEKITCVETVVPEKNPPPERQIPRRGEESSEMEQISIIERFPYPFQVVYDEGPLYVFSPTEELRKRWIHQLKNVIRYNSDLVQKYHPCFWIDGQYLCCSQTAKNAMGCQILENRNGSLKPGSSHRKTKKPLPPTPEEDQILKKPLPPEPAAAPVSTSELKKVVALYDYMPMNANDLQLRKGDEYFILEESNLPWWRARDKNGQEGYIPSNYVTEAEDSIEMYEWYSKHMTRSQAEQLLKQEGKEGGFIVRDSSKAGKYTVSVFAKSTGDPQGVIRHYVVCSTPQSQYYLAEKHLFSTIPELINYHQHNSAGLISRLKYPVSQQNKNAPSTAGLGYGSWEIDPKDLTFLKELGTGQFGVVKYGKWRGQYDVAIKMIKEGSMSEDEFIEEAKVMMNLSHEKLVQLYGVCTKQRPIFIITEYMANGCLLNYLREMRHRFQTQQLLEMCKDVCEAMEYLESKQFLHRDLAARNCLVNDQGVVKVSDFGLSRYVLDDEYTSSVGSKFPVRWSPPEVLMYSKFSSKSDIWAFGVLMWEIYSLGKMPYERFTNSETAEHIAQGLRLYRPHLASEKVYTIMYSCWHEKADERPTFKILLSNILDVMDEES

Consider `COc1cc(-c2cc3nccc(-c4ccc5[nH]cnc5c4)c3o2)cc(OC)c1OC` [Compound C60], for which the IC50 (as a rule, the concentration at which inhibition is half-maximal) at Syk is less than 0.3 µM; against SRC, 3 to 50 µM; against Zap70, 3 to 50 µM; against KDR, 0.3 to 3 µM.

For `COc1cc(NC(=O)[C@@H]2C[C@@H](O)CN2)cc(-c2cc3nccc(-c4ccccc4)c3o2)c1` [Compound C46], the results for the IC50 at Syk, on Zap70 and at KDR were less than 0.3 µM, 3 to 50 µM and 3 to 50 µM, respectively.

Turning to `COc1cc(-c2cc3nccc(-c4cc[nH]n4)c3o2)cc(OC)c1OC` [Compound C73], the IC50 is less than 0.3 µM on Syk; 3 to 50 µM at BTK; 0.3 to 3 µM at SRC; 0.3 to 3 µM against Zap70; less than 0.3 µM at KDR.

Take `COc1cc(-c2cc3nccc(-c4c[nH]c5ccccc45)c3o2)cc(OC)c1OC` [Compound A25, 7-(1H-Indol-3-yl)-2-(3,4,5-trimethoxy-phenyl)-furo[3,2-b]pyridine]: the IC50 lay within 0.3 to 3 µM on Syk, 3 to 50 µM against SRC, 3 to 50 µM against Zap70 and 3 to 50 µM against KDR.

Regarding `COc1cc(-c2cc3nccc(-c4cccc(C(=O)NC5CCCCC5N)c4)c3o2)cc(OC)c1OC` (stereo not shown) [Compound A45, N-(2-Amino-cyclohexyl)-3-[2-(3,4,5-trimethoxy-phenyl)-furo[3,2-b]pyridin-7-yl]-benzamide], the IC50 is less than 0.3 µM on Syk, 0.3 to 3 µM at SRC, 3 to 50 µM against Zap70 and 3 to 50 µM at KDR.

Take `COc1cc(-c2cc3nccc(-c4cccc5[nH]ncc45)c3o2)cc(OC)c1OC` [Compound A17, 7-(1H-Indazol-4-yl)-2-(3,4,5-trimethoxy-phenyl)-furo[3,2-b]pyridine]: the IC50 at Syk is less than 0.3 µM; against Zap70, 3 to 50 µM; against KDR, 0.3 to 3 µM.

Regarding `COc1cc(-c2cc3nccc(-c4cccc(C(=O)NCc5n[nH]c(=O)[nH]5)c4)c3o2)cc(OC)c1OC` [Compound C12], the IC50 on Syk is less than 0.3 µM; against Zap70 it was 3 to 50 µM; at KDR it was 0.3 to 3 µM.

For the compound `COCC(O)Cn1cc(-c2ccnc3cc(-c4cc(OC)c(OC)c(OC)c4)oc23)cn1` (stereo not shown) [Compound C66], the values for the IC50 on Syk, against Zap70 and on KDR were 0.3 to 3 µM, 3 to 50 µM and 0.3 to 3 µM, respectively.

In the case of `COc1cc(-c2cc3nccc(-c4cccc(N)c4)c3o2)cc(OC)c1OC` [Compound A55, 3-[2-(3,4,5-Trimethoxy-phenyl)-furo[3,2-b]pyridin-7-yl]-phenylamine], the IC50 is less than 0.3 µM at Syk, 0.3 to 3 µM against Zap70 and 3 to 50 µM against KDR.

`COc1cc(-c2cc3nccc(-c4c(OC)cccc4OC)c3o2)cc(OC)c1OC` [Compound C2]: the IC50 is less than 0.3 µM on Syk, 0.3 to 3 µM on SRC, 3 to 50 µM against Zap70 and 3 to 50 µM at KDR.

`COc1cc(-c2cc3nccc(-c4cn[nH]c4)c3o2)cc(OC)c1OC` [Compound C72]: the half-maximal inhibitory concentration (IC50) was less than 0.3 µM at Syk; 3 to 50 µM against BTK; 0.3 to 3 µM against SRC; 3 to 50 µM against Zap70; less than 0.3 µM on KDR.

Take `COc1cc(-c2cc3nccc(-c4ccnc(NCC5CCCNC5)c4)c3o2)cc(OC)c1OC` (stereo not shown) [Compound C185]: the IC50 at Syk is less than 0.3 µM; at SRC, less than 0.3 µM; against Zap70, 3 to 50 µM.

For the compound `COc1cc(-c2cc3nccc(-c4ccc(C(=O)O)cc4)c3o2)cc(OC)c1OC` [Compound A42, 4-[2-(3,4,5-Trimethoxy-phenyl)-furo[3,2-b]pyridin-7-yl]-benzoic acid], the IC50 at Syk was less than 0.3 µM; at SRC, 3 to 50 µM; against Zap70 it was 0.3 to 3 µM; against KDR, 3 to 50 µM.

Take `Cn1cc(-c2ccnc3cc(-c4cccc(N)c4)oc23)cn1` [Compound C29]: the IC50 at Syk is less than 0.3 µM; on SRC it was 3 to 50 µM; at Zap70, 3 to 50 µM; on KDR, 0.3 to 3 µM.

In the case of `COc1cc(-c2cc3nccc(-c4ccnn4C)c3o2)cc(OC)c1OC` [Compound C64], the figures for the IC50 on Syk and at Zap70 were 0.3 to 3 µM and 3 to 50 µM, respectively.

In the case of `COc1cc(-c2cc3nccc(-c4cnn(Cc5ccccc5)c4)c3o2)cc(OC)c1OC` [Compound C58], the IC50 on Syk and against Zap70 was less than 0.3 µM each time.

`COc1cc(-c2cc3nccc(-c4ccc5c(c4)OCO5)c3o2)cc(OC)c1OC` [Compound B76, 7-(Benzo[d][1,3]dioxol-5-yl)-2-(3,4,5-trimethoxyphenyl)furo[3,2-b]pyridine]: the IC50 was less than 0.3 µM at Syk and 0.3 to 3 µM on Zap70.

On to `COc1cc(-c2cc3nccc(-c4ccc(CO)nc4)c3o2)cc(OC)c1OC` [Compound C27], for which the IC50 is less than 0.3 µM at Syk, 3 to 50 µM at Zap70 and 3 to 50 µM against KDR.

For the compound `COc1cc(-c2cc3nccc(Nc4ccc5cn[nH]c5c4)c3o2)cc(OC)c1OC` [Compound B15], the IC50 at Syk lay in the range of 0.3 to 3 µM; on BTK it was 3 to 50 µM; against SRC it was 3 to 50 µM; on Zap70, 3 to 50 µM; against KDR, 0.3 to 3 µM.

Consider `Cc1c(Nc2ccnc3cc(-c4ccc(CO)cc4)oc23)ccc2[nH]ccc12` [Compound B61, {4-[7-(4-Methyl-1H-indol-5-ylamino)-furo[3,2-b]pyridin-2-yl]-phenyl}-methanol], for which the IC50 at Syk is 0.3 to 3 µM; on Zap70, less than 0.3 µM; on KDR, less than 0.3 µM.

In the case of `COc1cc(-c2cc3nccc(-c4ccc(N)cc4)c3o2)cc(OC)c1OC` [Compound A56, 4-[2-(3,4,5-Trimethoxy-phenyl)-furo[3,2-b]pyridin-7-yl]-phenylamine], the IC50 at Syk is less than 0.3 µM; on Zap70, 0.3 to 3 µM; on KDR, 0.3 to 3 µM.

Take `COc1cc(-c2cc3nccc(-c4ccc5[nH]nnc5c4)c3o2)cc(OC)c1OC` [Compound C70]: the IC50 at Syk was less than 0.3 µM; against Zap70, 0.3 to 3 µM; against KDR it was 0.3 to 3 µM.

Turning to `COc1ccc(-c2cc3nccc(-c4ccccc4)c3o2)cc1NC(=O)[C@@H]1CCCN1` [Compound C30], the IC50 on Syk was in the range of 0.3 to 3 µM; against Zap70, 3 to 50 µM; against KDR it was 0.3 to 3 µM.

For the compound `COc1cc(-c2cc3nccc(-c4cnn(C)c4)c3o2)ccc1O` [Compound C26], the IC50 at Syk is less than 0.3 µM; against SRC, 0.3 to 3 µM; against Zap70, 0.3 to 3 µM; at KDR, 0.3 to 3 µM.
